How the values were obtained:
Assay type in all cases: in vivo
[1] = system: ragweed (common ragweed, Ambrosia elatior); assay: Test A preemergence; details: Ambrosia artemisiifolia, pre-emergence, 240 h, 0 to 100 scale where 0 is no effect and 100 is complete control, read-out: Ragweed plant response rating; for pest or weed control at 31 g/ha: 31 g ai/ha, Preemergence; for pest or weed control at 125 g/ha: 125 g ai/ha, preemergence, approx. 10 d
In short: (§1)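 Preemergence soil spray on seeded pots or post-emergence spray on 1–2 leaf plants, in loam–sand blend. Greenhouse ~10 d. Visual rating 0–100 against untreated plants.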

Kochia (Kochia scoparia) [2] = assay: Test A preemergence; details: Bassia scoparia, pre-emergence, 240 h, 0 to 100 scale where 0 is no effect and 100 is complete control, read-out: Kochia plant response rating; for pest or weed control at 31 g/ha: 31 g ai/ha, Preemergence; for pest or weed control at 125 g/ha: 125 g ai/ha, preemergence, approx. 10 d
In short: as §1

[3] = system: giant foxtail (Setaria faberii); assay: Test A preemergence; details: Setaria faberi, pre-emergence, 240 h, 0 to 100 scale where 0 is no effect and 100 is complete control, read-out: Foxtail, Giant plant response rating; for pest or weed control at 31 g/ha: 31 g ai/ha, Preemergence; for pest or weed control at 125 g/ha: 125 g ai/ha, preemergence, approx. 10 d
In short: as §1

[4] = system: barnyardgrass (Echinochloa crus-galli); assay: Test A preemergence; details: Echinochloa crus-galli, pre-emergence, 240 h, 0 to 100 scale where 0 is no effect and 100 is complete control, read-out: Barnyardgrass plant response rating; for pest or weed control at 31 g/ha: 31 g ai/ha, Preemergence; for pest or weed control at 125 g/ha: 125 g ai/ha, preemergence, approx. 10 d
In short: as §1

[5] = system: ryegrass, Italian (Italian ryegrass, Lolium multiflorum); assay: Test A preemergence; details: Lolium multiflorum, pre-emergence, 240 h, 0 to 100 scale where 0 is no effect and 100 is complete control, read-out: Ryegrass, Italian plant response rating; for pest or weed control at 31 g/ha: 31 g ai/ha, Preemergence; for pest or weed control at 125 g/ha: 125 g ai/ha, preemergence, approx. 10 d
In short: as §1

[6] = system: pigweed (Amaranthus retroflexus); assay: Test A preemergence; details: Amaranthus retroflexus, pre-emergence, 240 h, 0 to 100 scale where 0 is no effect and 100 is complete control, read-out: Pigweed plant response rating; for pest or weed control at 31 g/ha: 31 g ai/ha, Preemergence; for pest or weed control at 125 g/ha: 125 g ai/ha, preemergence, approx. 10 d
rice (Oryra sativa) = assay: Test B flooded paddy test; details: Oryza sativa, 250 g ai/ha, Flood; 0 to 100 scale where 0 is no effect and 100 is complete control; read-out: Rice plant response rating
In short: (§2)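 Percent control, visually estimated after 13–15 d in the greenhouse on a 0–100 basis, compares treated pots with untreated ones; compound was put into paddy water 3 cm above the soil when plants had two leaves.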

[7] = system: sedge, umbrella (small-flower umbrella sedge, Cyperus difformis); assay: Test B flooded paddy test; details: Cyperus difformis, 250 g ai/ha, Flood; 0 to 100 scale where 0 is no effect and 100 is complete control; read-out: Sedge, Umbrella plant response rating
In short: as §2

[8] = system: ducksalad (Heteranthera limosa); assay: Test B flooded paddy test; details: Heteranthera limosa, 250 g ai/ha, Flood; 0 to 100 scale where 0 is no effect and 100 is complete control; read-out: Ducksalad plant response rating
In short: as §2

[9] = system: barnyardgrass (Echinochloa crus-galli); assay: Test B flooded paddy test; details: Echinochloa crus-galli, 250 g ai/ha, Flood; 0 to 100 scale where 0 is no effect and 100 is complete control; read-out: Barnyardgrass plant response rating
In short: as §2

[10] = system: ragweed (common ragweed, Ambrosia elatior); assay: Test A postemergence; details: Ambrosia artemisiifolia, post-emergence, 240 h; for pest or weed control at 125 g/ha: 125 g ai/ha, postemergence, visual injury vs untreated controls after approx. 10 d, 0 = no effect, 100 = complete control, read-out: Ragweed plant response rating (0 to 100 scale); for pest or weed control at 31 g/ha: Postemergence, 31 g ai/ha, visual injury after approx. 10 d, 0 to 100 scale, 0 no effect, 100 complete control, read-out: Plant response rating, Ragweed
In short: as §1

[11] = system: wheat (Triticum aestivum); assay: Test A postemergence; details: Triticum aestivum, post-emergence, 240 h; for plant injury at 125 g/ha: 125 g ai/ha, postemergence, visual injury vs untreated controls after approx. 10 d, 0 = no effect, 100 = complete control, read-out: Wheat plant response rating (0 to 100 scale); for plant injury at 31 g/ha: Postemergence, 31 g ai/ha, visual injury after approx. 10 d, 0 to 100 scale, 0 no effect, 100 complete control, read-out: Plant response rating, Wheat
In short: as §1

Kochia (Kochia scoparia) [12] = assay: Test A postemergence; details: Bassia scoparia, post-emergence, 240 h; for pest or weed control at 125 g/ha: 125 g ai/ha, postemergence, visual injury vs untreated controls after approx. 10 d, 0 = no effect, 100 = complete control, read-out: Kochia plant response rating (0 to 100 scale); for pest or weed control at 31 g/ha: Postemergence, 31 g ai/ha, visual injury after approx. 10 d, 0 to 100 scale, 0 no effect, 100 complete control, read-out: Plant response rating, Kochia
In short: as §1

[13] = system: Galium (catchweed bedstraw, Galium aparine); assay: Test A postemergence; details: Galium, post-emergence, 240 h; for pest or weed control at 125 g/ha: 125 g ai/ha, postemergence, visual injury vs untreated controls after approx. 10 d, 0 = no effect, 100 = complete control, read-out: Galium plant response rating (0 to 100 scale); for pest or weed control at 31 g/ha: Postemergence, 31 g ai/ha, visual injury after approx. 10 d, 0 to 100 scale, 0 no effect, 100 complete control, read-out: Plant response rating, Galium
In short: as §1

[14] = system: giant foxtail (Setaria faberii); assay: Test A postemergence; details: Setaria faberi, post-emergence, 240 h; for pest or weed control at 125 g/ha: 125 g ai/ha, postemergence, visual injury vs untreated controls after approx. 10 d, 0 = no effect, 100 = complete control, read-out: Foxtail, Giant plant response rating (0 to 100 scale); for pest or weed control at 31 g/ha: Postemergence, 31 g ai/ha, visual injury after approx. 10 d, 0 to 100 scale, 0 no effect, 100 complete control, read-out: Plant response rating, Foxtail, Giant
In short: as §1

[15] = system: blackgrass (Alopecurus myosuroides); assay: Test A postemergence; details: Alopecurus myosuroides, post-emergence, 240 h; for pest or weed control at 125 g/ha: 125 g ai/ha, postemergence, visual injury vs untreated controls after approx. 10 d, 0 = no effect, 100 = complete control, read-out: Blackgrass plant response rating (0 to 100 scale); for pest or weed control at 31 g/ha: Postemergence, 31 g ai/ha, visual injury after approx. 10 d, 0 to 100 scale, 0 no effect, 100 complete control, read-out: Plant response rating, Blackgrass
In short: as §1

corn (Zea mays) = assay: Test A postemergence; details: Zea mays, post-emergence, 240 h; for plant injury at 125 g/ha: 125 g ai/ha, postemergence, visual injury vs untreated controls after approx. 10 d, 0 = no effect, 100 = complete control, read-out: Corn plant response rating (0 to 100 scale); for Corn plant response rating (crop injury, 0 = no effect, 100 = complete kill) at 31 g/ha: Postemergence, 31 g ai/ha, visual injury after approx. 10 d, 0 to 100 scale, 100 complete control
In short: as §1

[16] = system: barnyardgrass (Echinochloa crus-galli); assay: Test A postemergence; details: Echinochloa crus-galli, post-emergence, 240 h; for pest or weed control at 125 g/ha: 125 g ai/ha, postemergence, visual injury vs untreated controls after approx. 10 d, 0 = no effect, 100 = complete control, read-out: Barnyardgrass plant response rating (0 to 100 scale); for pest or weed control at 31 g/ha: Postemergence, 31 g ai/ha, visual injury after approx. 10 d, 0 to 100 scale, 0 no effect, 100 complete control, read-out: Plant response rating, Barnyardgrass
In short: as §1

[17] = system: ryegrass, Italian (Italian ryegrass, Lolium multiflorum); assay: Test A postemergence; details: Lolium multiflorum, post-emergence, 240 h; for pest or weed control at 125 g/ha: 125 g ai/ha, postemergence, visual injury vs untreated controls after approx. 10 d, 0 = no effect, 100 = complete control, read-out: Ryegrass, Italian plant response rating (0 to 100 scale); for pest or weed control at 31 g/ha: Postemergence, 31 g ai/ha, visual injury after approx. 10 d, 0 to 100 scale, 0 no effect, 100 complete control, read-out: Plant response rating, Ryegrass, Italian
In short: as §1

[18] = system: pigweed (Amaranthus retroflexus); assay: Test A postemergence; details: Amaranthus retroflexus, post-emergence, 240 h; for pest or weed control at 125 g/ha: 125 g ai/ha, postemergence, visual injury vs untreated controls after approx. 10 d, 0 = no effect, 100 = complete control, read-out: Pigweed plant response rating (0 to 100 scale); for pest or weed control at 31 g/ha: Postemergence, 31 g ai/ha, visual injury after approx. 10 d, 0 to 100 scale, 0 no effect, 100 complete control, read-out: Plant response rating, Pigweed
In short: as §1

| SMILES | pest or weed control at 31 g/ha [1] [%] | pest or weed control at 125 g/ha [1] [%] | pest or weed control at 31 g/ha (Kochia (Kochia scoparia) [2]) [%] | pest or weed control at 125 g/ha (Kochia (Kochia scoparia) [2]) [%] | pest or weed control at 31 g/ha [3] [%] | pest or weed control at 125 g/ha [3] [%] | pest or weed control at 31 g/ha [4] [%] | pest or weed control at 125 g/ha [4] [%] | pest or weed control at 31 g/ha [5] [%] | pest or weed control at 125 g/ha [5] [%] | pest or weed control at 31 g/ha [6] [%] | pest or weed control at 125 g/ha [6] [%] | pest or weed control at 250 g/ha (rice (Oryra sativa)) [%] | pest or weed control at 250 g/ha [7] [%] | pest or weed control at 250 g/ha [8] [%] | pest or weed control at 250 g/ha [9] [%] | pest or weed control at 125 g/ha [10] [%] | pest or weed control at 31 g/ha [10] [%] | plant injury at 125 g/ha [11] [%] | plant injury at 31 g/ha [11] [%] | further results |
| --- | --- | --- | --- | --- | --- | --- | --- | --- | --- | --- | --- | --- | --- | --- | --- | --- | --- | --- | --- | --- | --- |
| COCOCc1ccccc1NC(=O)[C@H]1C(=O)N(C)C[C@@H]1c1cccc(C(F)(F)F)c1 (racemic) [Compound 1161] | 0 | 0 | 0 | 0 | 0 | 20 | 0 | 0 | 0 | 0 | 0 | 0 | 15 | 0 | 0 | 0 | 0 | 0 | 0 | 0 | pest or weed control at 125 g/ha (Kochia (Kochia scoparia) [12]): 0%; pest or weed control at 31 g/ha (Kochia (Kochia scoparia) [12]): 0%; pest or weed control at 125 g/ha [13]: 0%; pest or weed control at 31 g/ha [13]: 0%; pest or weed control at 125 g/ha [14]: 0%; pest or weed control at 31 g/ha [14]: 0%; pest or weed control at 125 g/ha [15]: 0%; pest or weed control at 31 g/ha [15]: 0%; plant injury at 125 g/ha (corn (Zea mays)): 0%; Corn plant response rating (crop injury, 0 = no effect, 100 = complete kill) at 31 g/ha (corn (Zea mays)): 0%; pest or weed control at 125 g/ha [16]: 0%; pest or weed control at 31 g/ha [16]: 0%; pest or weed control at 125 g/ha [17]: 0%; pest or weed control at 31 g/ha [17]: 0%; pest or weed control at 125 g/ha [18]: 0%; pest or weed control at 31 g/ha [18]: 0% |
| CN1C[C@H](c2cccc(C(F)(F)F)c2)[C@@H](C(=O)Nc2ccccc2CCO)C1=O (racemic) [Compound 1162] | 0 | 0 | 0 | 0 | 50 | 90 | 40 | 90 | 0 | 20 | 0 | 0 | 15 | 0 | 80 | 35 | 0 | 0 | 20 | 0 | pest or weed control at 125 g/ha (Kochia (Kochia scoparia) [12]): 0%; pest or weed control at 31 g/ha (Kochia (Kochia scoparia) [12]): 0%; pest or weed control at 125 g/ha [13]: 50%; pest or weed control at 31 g/ha [13]: 0%; pest or weed control at 125 g/ha [14]: 40%; pest or weed control at 31 g/ha [14]: 30%; pest or weed control at 125 g/ha [15]: 0%; pest or weed control at 31 g/ha [15]: 0%; plant injury at 125 g/ha (corn (Zea mays)): 0%; Corn plant response rating (crop injury, 0 = no effect, 100 = complete kill) at 31 g/ha (corn (Zea mays)): 0%; pest or weed control at 125 g/ha [16]: 60%; pest or weed control at 31 g/ha [16]: 30%; pest or weed control at 125 g/ha [17]: 0%; pest or weed control at 31 g/ha [17]: 0%; pest or weed control at 125 g/ha [18]: 0%; pest or weed control at 31 g/ha [18]: 0% |

Reference: patent publication US12077503B2, “Substituted cyclic amides and their use as herbicides” (FMC CORPORATION, priority 2015, dated 2024)
